Results reported in US11613538B2, “Method of inhibiting or reducing a viral infection” (PTC Therapeutics, Inc., priority 2009, dated 2023).

Legend:
[1] = tested on: Influenza A; assay: microbe, parasite or virus in culture; assay type: cell-based, influenza virus
[2] = tested on: HeLa cells; settings: human
[3] = tested on: hypoxia-induced VEGF production in HeLa cells; assay: cells; assay type: cell-based, human
[4] = tested on: HCV genotype 2a replicon; assay: HCV subgenomic replicon assay, genotype 2a; assay type: cell-based; settings: Hepatitis C virus

## COc1ccc([C@H]2c3[nH]c4ccc(Cl)cc4c3CCN2C(=O)Oc2ccc(Cl)cc2)cc1 (racemic) [Compound #10]
[1]
  Inhibition of influenza virus: did not exhibit any selective inhibition
[1]; Influenza A virus, MDCK
  IC50: > 1000 nM
  IC90: > 1000 nM
[2]
  CC50: > 1000 nM
[3]
  Inhibition of stress-induced VEGF production (FIG. 1): inhibit stress-induced VEGF production
[4]
  IC50: < 3 nM
